# In patent US20090227507A1, “Angiotensin (1-7) Dosage Forms and Uses Thereof” (UNIVERSITY OF SOUTHERN CALIFORNIA, priority 2008, published 2009):
# Experiments:
# [1] = 12-lead electrocardiogram in healthy men; type: in vivo, human; conditions: Screening or Study Day 8
# Source text: Safety assessments during the study period included vital sign measurement (systolic [SBP] and diastolic [DBP] blood pressure, heart rate [HR], respiratory rate [RR] in the sitting position, and oral temperature), clinical chemistry, hematology, urinalysis, 12-lead electrocardiogram (ECG) in the supine position, and AE monitoring. Clinical chemistry/hematology samples were drawn within a 30-minute period prior to dosing on selected dosing days.
# lymphocyte numbers = assay: Lymphocyte recovery after subcutaneous TXA127 in subjects without HIV infection (breast cancer subjects receiving chemotherapy); type: in vivo; conditions: human subjects without HIV infection (e.g., breast cancer subjects receiving cancer chemotherapy)
# Source text: In the absence of effective antiretroviral therapy, HIV disease is characterized by the relentless destruction of CD4+ T-lymphocytes resulting in disordered and declining immune function.
# [2] = tested on: CD3 cells in peripheral blood; assay: Flow cytometry of peripheral blood, CD3 lymphocytes; USB003 SC once daily for 7 days in healthy men; type: in vivo, human; set-up: key to Subjects with shift, Absolute CD3, N-L (normal to low) / Subjects with shift, Absolute CD3, N-H (normal to high) / Subjects with shift, Absolute CD3, L-N (low to normal) / Subjects with shift, Absolute CD3, H-N (high to normal): — signifies subject with no shift from baseline; conditions: for CD3, Absolute, Mean at Baseline: Baseline (Day 1)
# Procedure: (§1) • Single-center, randomized, double-blind, placebo-controlled, 2 cohort dose-escalation trial of once daily dosing over a 7-day period (7 doses total): • Cohort 1: 2 subjects treated with placebo and 8 subjects treated with 200 μg/kg USB003 (A(1-7)) • Cohort 2: 2 subjects treated with placebo and 8 subjects treated with 300 μg/kg USB003 • For each cohort, there was a Screening Period, Treatment Phase, Follow-up Period, and Study Termination or Early Withdrawal Day. Subjects were confined to the study unit during the Treatment Phase. • Cohort 2 was treated approximately 1 week after completion of the Treatment Phase for Cohort 1 to allow time for the assessment of safety and tolerability in the first cohort.
# (§2) Pharmacological Effect: The following evaluations (under efficacy and safety in the protocol) were performed: • Effects on the number of mature blood cells: • 1. CBC (with differential), platelet count, reticulocyte count. • Effects on early hematopoietic progenitor cells and mature lymphocyte subsets in the periphery: • 1. Flow cytometry to evaluate frequency of peripheral blood progenitor cells (eg, CD34^+) and lymphocyte subsets (eg, CD3, CD4, CD8) in peripheral blood. • 2. Collection of blood for later possible culture for progenitor cells (eg, colony forming units-granulocyte/macrophage [CFU-GM]) to evaluate potential effects on CD34^+ hematopoietic progenitor cells in peripheral blood. • 3.
# (§3) The effect of USB003 on the number of mature blood cells was assessed by the complete blood count with differential, platelet and reticulocyte counts. The effects on early hematopoietic progenitor cells and mature lymphocyte subsets in the periphery were assessed by flow cytometry. In addition, blood was collected and processed to enable culture of progenitors at a later time.
# (§4) Red blood cell (RBC) count, RBC indices, white blood cell count (WBC) with differential, reticulocyte count, platelet count, hemoglobin (Hb), hematocrit (Hct), plasma hemoglobin, peripheral flow cytometry, including CD34^+, flow cytometry for enumeration of CD3, CD4, and CD8 lymphocytes, and culture for progenitor cells in peripheral blood including colony-forming units-granulocyte/macrophage (CFU-GM).
# [3] = Renal laboratory values (serum creatinine, creatinine clearance, 24-hour urine) in healthy men; conditions: human, in vivo
# Procedure: USB003 was administered SC in the abdomen by a qualified study staff member 24 hours after the previous (Day 6) injection.
# Blood, urobilinogen, ketones, glucose, protein, microscopic examination of sediment, sodium, and potassium.
# [4] = tested on: CD4 cells in peripheral blood; assay: Flow cytometry of peripheral blood, CD4 lymphocytes; USB003 SC once daily for 7 days in healthy men; type: in vivo, human; set-up: key to Subjects with shift, Absolute CD4, N-L (normal to low) / Subjects with shift, Absolute CD4, N-H (normal to high) / Subjects with shift, Absolute CD4, H-N (high to normal) / Subjects with shift, Absolute CD4, L-N (low to normal): — signifies subject with no shift from baseline; conditions: for CD4, Absolute, Mean at Baseline: Baseline (Day 1)
# Procedure: as §1, §2, §3, §4
substance,measurement,setting,value
Asp-Arg-Val-Tyr-Ile-His-Pro [USB003],12-lead ECG findings,[1],no abnormal CS 12-lead ECGs findings
same,lymphocyte numbers following subcutaneous injection,lymphocyte numbers,dramatic recovery of lymphocyte numbers
same,"CD3, Absolute, Mean at Baseline",[2]; 200 μg/kg,1732.3 cells/μL
same,"Subjects with shift, Absolute CD3, H-N (high to normal)","[2]; 200 μg/kg, Baseline to Day 8",1
same,"Subjects with shift, Absolute CD3, L-N (low to normal)","[2]; 200 μg/kg, Baseline to Day 8",—
same,"Subjects with shift, Absolute CD3, N-H (normal to high)","[2]; 200 μg/kg, Baseline to Day 8",—
same,"Subjects with shift, Absolute CD3, N-L (normal to low)","[2]; 200 μg/kg, Baseline to Day 8",—
same,"Subjects with shift, Absolute CD3, H-N (high to normal)","[2]; 200 μg/kg, Baseline to Day 20",1
same,"Subjects with shift, Absolute CD3, L-N (low to normal)","[2]; 200 μg/kg, Baseline to Day 20",—
same,"Subjects with shift, Absolute CD3, N-H (normal to high)","[2]; 200 μg/kg, Baseline to Day 20",—
same,"Subjects with shift, Absolute CD3, N-L (normal to low)","[2]; 200 μg/kg, Baseline to Day 20",—
same,"CD3, Absolute, Mean Change from Baseline","[2]; 200 μg/kg, Day 3",−115.8 cells/μL
same,"CD3, Absolute, Mean Change from Baseline","[2]; 200 μg/kg, Day 5",70.6 cells/μL
same,"CD3, Absolute, Mean Change from Baseline","[2]; 200 μg/kg, Day 7",53.9 cells/μL
same,"CD3, Absolute, Mean Change from Baseline","[2]; 200 μg/kg, Day 8",−32.0 cells/μL
same,"CD3, Absolute, Mean Change from Baseline","[2]; 200 μg/kg, Day 11",122.0 cells/μL
same,"CD3, Absolute, Mean Change from Baseline","[2]; 200 μg/kg, Day 14",60.0 cells/μL
same,"CD3, Absolute, Mean Change from Baseline","[2]; 200 μg/kg, Day 17",−121.1 cells/μL
same,"CD3, Absolute, Mean Change from Baseline","[2]; 200 μg/kg, Day 20",−63.6 cells/μL
same,increase in CD3 (pan T cell marker) during study drug administration,"[2]; 300 μg/kg/day, rapidly diminished after cessation of treatment",15-20%
same,"CD3, Absolute, Mean at Baseline",[2]; 300 μg/kg,1285.5 cells/μL
same,"Subjects with shift, Absolute CD3, H-N (high to normal)","[2]; 300 μg/kg, Baseline to Day 8",—
same,"Subjects with shift, Absolute CD3, L-N (low to normal)","[2]; 300 μg/kg, Baseline to Day 8",—
same,"Subjects with shift, Absolute CD3, N-H (normal to high)","[2]; 300 μg/kg, Baseline to Day 8",—
same,"Subjects with shift, Absolute CD3, N-L (normal to low)","[2]; 300 μg/kg, Baseline to Day 8",—
same,"Subjects with shift, Absolute CD3, H-N (high to normal)","[2]; 300 μg/kg, Baseline to Day 20",—
same,"Subjects with shift, Absolute CD3, L-N (low to normal)","[2]; 300 μg/kg, Baseline to Day 20",—
same,"Subjects with shift, Absolute CD3, N-H (normal to high)","[2]; 300 μg/kg, Baseline to Day 20",—
same,"Subjects with shift, Absolute CD3, N-L (normal to low)","[2]; 300 μg/kg, Baseline to Day 20",—
same,"CD3, Absolute, Mean Change from Baseline","[2]; 300 μg/kg, Day 3",167.8 cells/μL
same,"CD3, Absolute, Mean Change from Baseline","[2]; 300 μg/kg, Day 5",159.8 cells/μL
same,"CD3, Absolute, Mean Change from Baseline","[2]; 300 μg/kg, Day 7",229.8 cells/μL
same,"CD3, Absolute, Mean Change from Baseline","[2]; 300 μg/kg, Day 8",67.1 cells/μL
same,"CD3, Absolute, Mean Change from Baseline","[2]; 300 μg/kg, Day 11",−63.5 cells/μL
same,"CD3, Absolute, Mean Change from Baseline","[2]; 300 μg/kg, Day 14",0.3 cells/μL
same,"CD3, Absolute, Mean Change from Baseline","[2]; 300 μg/kg, Day 17",−87.9 cells/μL
same,"CD3, Absolute, Mean Change from Baseline","[2]; 300 μg/kg, Day 20",56.9 cells/μL
same,"Creatinine Clearance shift L-N, number of subjects",[3]; 200 ug/kg,3
same,creatinine clearance,[3]; 200 ug/kg,increase
same,subjects with creatinine clearance shifted from low to normal,[3]; 200 ug/kg,3 of the 9
same,"Creatinine Clearance shift L-N, number of subjects",[3]; 300 ug/kg,2
same,"Creatinine Clearance shift N-L, number of subjects",[3]; 300 ug/kg,1
same,increase in creatinine clearance,[3]; 300 ug/kg,not observed
same,subjects with creatinine clearance shifted from low to normal,[3]; 300 ug/kg,2 of the 8
same,"CD4, Absolute, Mean at Baseline",[4]; 200 μg/kg,1122.6 cells/μL
same,"Subjects with shift, Absolute CD4, H-N (high to normal)","[4]; 200 μg/kg, Baseline to Day 8",1
same,"Subjects with shift, Absolute CD4, L-N (low to normal)","[4]; 200 μg/kg, Baseline to Day 8",—
same,"Subjects with shift, Absolute CD4, N-H (normal to high)","[4]; 200 μg/kg, Baseline to Day 8",—
same,"Subjects with shift, Absolute CD4, N-L (normal to low)","[4]; 200 μg/kg, Baseline to Day 8",—
same,"Subjects with shift, Absolute CD4, H-N (high to normal)","[4]; 200 μg/kg, Baseline to Day 20",1
same,"Subjects with shift, Absolute CD4, L-N (low to normal)","[4]; 200 μg/kg, Baseline to Day 20",—
same,"Subjects with shift, Absolute CD4, N-H (normal to high)","[4]; 200 μg/kg, Baseline to Day 20",—
same,"Subjects with shift, Absolute CD4, N-L (normal to low)","[4]; 200 μg/kg, Baseline to Day 20",—
same,"CD4, Absolute, Mean Change from Baseline","[4]; 200 μg/kg, Day 3",−88.0 cells/μL
same,"CD4, Absolute, Mean Change from Baseline","[4]; 200 μg/kg, Day 5",39.5 cells/μL
same,"CD4, Absolute, Mean Change from Baseline","[4]; 200 μg/kg, Day 7",53.6 cells/μL
same,"CD4, Absolute, Mean Change from Baseline","[4]; 200 μg/kg, Day 8",−24.0 cells/μL
same,"CD4, Absolute, Mean Change from Baseline","[4]; 200 μg/kg, Day 11",82.5 cells/μL
same,"CD4, Absolute, Mean Change from Baseline","[4]; 200 μg/kg, Day 14",12.1 cells/μL
same,"CD4, Absolute, Mean Change from Baseline","[4]; 200 μg/kg, Day 17",−70.5 cells/μL
same,"CD4, Absolute, Mean Change from Baseline","[4]; 200 μg/kg, Day 20",−58.0 cells/μL
same,"CD4, Absolute, Mean at Baseline",[4]; 300 μg/kg,734.4 cells/μL
same,"Subjects with shift, Absolute CD4, H-N (high to normal)","[4]; 300 μg/kg, Baseline to Day 8",—
same,"Subjects with shift, Absolute CD4, L-N (low to normal)","[4]; 300 μg/kg, Baseline to Day 8",1
same,"Subjects with shift, Absolute CD4, N-H (normal to high)","[4]; 300 μg/kg, Baseline to Day 8",—
same,"Subjects with shift, Absolute CD4, N-L (normal to low)","[4]; 300 μg/kg, Baseline to Day 8",—
same,"Subjects with shift, Absolute CD4, H-N (high to normal)","[4]; 300 μg/kg, Baseline to Day 20",—
same,"Subjects with shift, Absolute CD4, L-N (low to normal)","[4]; 300 μg/kg, Baseline to Day 20",—
same,"Subjects with shift, Absolute CD4, N-H (normal to high)","[4]; 300 μg/kg, Baseline to Day 20",—
same,"Subjects with shift, Absolute CD4, N-L (normal to low)","[4]; 300 μg/kg, Baseline to Day 20",1
same,"CD4, Absolute, Mean Change from Baseline","[4]; 300 μg/kg, Day 3",109.6 cells/μL
same,"CD4, Absolute, Mean Change from Baseline","[4]; 300 μg/kg, Day 5",108.1 cells/μL
same,"CD4, Absolute, Mean Change from Baseline","[4]; 300 μg/kg, Day 7",129.3 cells/μL
same,"CD4, Absolute, Mean Change from Baseline","[4]; 300 μg/kg, Day 8",31.1 cells/μL
same,"CD4, Absolute, Mean Change from Baseline","[4]; 300 μg/kg, Day 11",−29.3 cells/μL
same,"CD4, Absolute, Mean Change from Baseline","[4]; 300 μg/kg, Day 14",9.7 cells/μL
same,"CD4, Absolute, Mean Change from Baseline","[4]; 300 μg/kg, Day 17",−40.0 cells/μL
same,"CD4, Absolute, Mean Change from Baseline","[4]; 300 μg/kg, Day 20",48.9 cells/μL
